Columns and labels:
Assay in all cases: NCI 60 cell panel SRB screen
SW-620 = type: cell-based; conditions: Homo sapiens; SW-620, single dose 10 μM; read-out: percent cell growth promotion
NCI-H23 = type: cell-based; conditions: Homo sapiens; NCI-H23, single dose 10 μM; read-out: percent cell growth promotion
SK-MEL-28 = type: cell-based; conditions: Homo sapiens, SK-MEL-28, read-out: percent cell growth promotion
RPMI-8226 = type: cell-based; conditions: Homo sapiens; RPMI-8226, single dose 10 μM; read-out: percent cell growth promotion
SN12C = type: cell-based; conditions: Homo sapiens, single dose 10 μM, read-out: percent cell growth promotion
ACHN = type: cell-based; conditions: Homo sapiens, single dose 10 μM, read-out: percent cell growth promotion
CCRF-CEM = type: cell-based, human; conditions: Homo sapiens, single dose 10 μM, read-out: percent cell growth promotion
MALME-3M = type: cell-based; conditions: Homo sapiens, Malme-3M, read-out: percent cell growth promotion
HCT-116 = type: cell-based; conditions: Homo sapiens; HCT-116, single dose 10 μM; read-out: percent cell growth promotion
UACC-257 = type: cell-based; conditions: Homo sapiens, UACC-257, read-out: percent cell growth promotion
MDA-MB 231/ATCC = type: cell-based; conditions: Homo sapiens, MDA-MB-231, read-out: percent cell growth promotion
HL-60(TB) = type: cell-based; conditions: Homo sapiens, single dose 10 μM, read-out: percent cell growth promotion
UACC-62 = type: cell-based; conditions: Homo sapiens, UACC-62, read-out: percent cell growth promotion
BT-549 = type: cell-based; conditions: Homo sapiens, BT-549, read-out: percent cell growth promotion
NCI-H460 = type: cell-based; conditions: Homo sapiens; NCI-H460, single dose 10 μM; read-out: percent cell growth promotion
IGROV1 = type: cell-based; conditions: Homo sapiens, IGROV-1; IGROV1, single dose 10 μM; read-out: percent cell growth promotion
U251 = type: cell-based; conditions: Homo sapiens, U-251; U251, single dose 10 μM; read-out: percent cell growth promotion
HOP-62 = type: cell-based; conditions: Homo sapiens; HOP-62, single dose 10 μM; read-out: percent cell growth promotion
HS 578T = type: cell-based; conditions: Homo sapiens, Hs-578T, read-out: percent cell growth promotion
KM12 = type: cell-based; conditions: Homo sapiens; KM12, single dose 10 μM; read-out: percent cell growth promotion
PC-3 = type: cell-based; conditions: Homo sapiens; PC-3, single dose 10 μM; read-out: percent cell growth promotion
786-0 = type: cell-based; conditions: Homo sapiens; 786-0, single dose 10 μM; read-out: percent cell growth promotion
SR = type: cell-based; conditions: Homo sapiens, single dose 10 μM, read-out: percent cell growth promotion
SK-OV-3 = type: cell-based; conditions: Homo sapiens; SK-OV-3, single dose 10 μM; read-out: percent cell growth promotion
SK-MEL-5 = type: cell-based; conditions: Homo sapiens, SK-MEL-5, read-out: percent cell growth promotion

O=C(Nc1ccc(Nc2nncc3ccccc23)cc1)c1ccc(Cl)cc1 [Compound 5b, 4-Chloro-N-(4-(phthalazin-1-ylamino)phenyl)benzamide] showed an activity at 10 µM (SW-620) of 102%, an activity at 10 µM (NCI-H23) of 98.5% and an activity at 10 µM (SK-MEL-28) of 114%. It also gave an activity at 10 µM (RPMI-8226) of 104%, an activity at 10 µM (SN12C) of 100% and an activity at 10 µM (ACHN) of 112%. It also gave an activity at 10 µM (CCRF-CEM) of 103%, an activity at 10 µM (MALME-3M) of 99.6% and an activity at 10 µM (HCT-116) of 100%. It also gave an activity at 10 µM (UACC-257) of 93%, an activity at 10 µM (MDA-MB 231/ATCC) of 93.3% and an activity at 10 µM (HL-60(TB)) of 103%. It also gave an activity at 10 µM (UACC-62) of 89.8%, an activity at 10 µM (BT-549) of 107% and an activity at 10 µM (NCI-H460) of 101%. It also gave an activity at 10 µM (IGROV1) of 102%, an activity at 10 µM (U251) of 99.5% and an activity at 10 µM (HOP-62) of 91.8%. For the same compound, the activity at 10 µM (HS 578T) was 105%, the activity at 10 µM (KM12) was 103% and the activity at 10 µM (PC-3) was 91.6%. For the same compound, the activity at 10 µM (786-0) was 107%, the activity at 10 µM (SR) was 95% and the activity at 10 µM (SK-OV-3) was 87.3%. For the same compound, the activity at 10 µM (SK-MEL-5) was 99.8%.
Cc1nnc(Nc2ccc(NC(=O)c3ccc(Cl)cc3)cc2)c2ccccc12 [Compound 5d, 4-Chloro-N-(4–(4-methylphthalazin-1-ylamino)phenyl)benzamide] gave an activity at 10 µM (SW-620) of 92.7%, an activity at 10 µM (NCI-H23) of 95% and an activity at 10 µM (SK-MEL-28) of 106%. For the same compound, the activity at 10 µM (RPMI-8226) was 89.3%, the activity at 10 µM (SN12C) was 91% and the activity at 10 µM (ACHN) was 111%. The activity at 10 µM (CCRF-CEM) was 91%, the activity at 10 µM (MALME-3M) was 99% and the activity at 10 µM (HCT-116) was 92.2%. It also gave an activity at 10 µM (UACC-257) of 97.4%, an activity at 10 µM (MDA-MB 231/ATCC) of 73% and an activity at 10 µM (HL-60(TB)) of 103%. For the same compound, the activity at 10 µM (UACC-62) was 95.9%, the activity at 10 µM (BT-549) was 92.2% and the activity at 10 µM (NCI-H460) was 96.4%. It also gave an activity at 10 µM (IGROV1) of 101%, an activity at 10 µM (U251) of 81% and an activity at 10 µM (HOP-62) of 88.8%. For the same compound, the activity at 10 µM (HS 578T) was 89.7%, the activity at 10 µM (KM12) was 101% and the activity at 10 µM (PC-3) was 72.6%. The activity at 10 µM (786-0) was 109%, the activity at 10 µM (SR) was 86.3% and the activity at 10 µM (SK-OV-3) was 83.5%. The activity at 10 µM (SK-MEL-5) was 78.7%.
With Cc1nnc(N2CCN(c3ccccc3F)CC2)c2ccccc12 [Compound 8h, 1–(4-(2-Fluorophenyl)piperazin-1-yl)-4-methylphthalazine] the activity at 10 µM (SW-620) was 106%, the activity at 10 µM (NCI-H23) was 101% and the activity at 10 µM (SK-MEL-28) was 104%. It also gave an activity at 10 µM (RPMI-8226) of 101%, an activity at 10 µM (SN12C) of 100% and an activity at 10 µM (ACHN) of 98.4%. For the same compound, the activity at 10 µM (CCRF-CEM) was 99.7%, the activity at 10 µM (MALME-3M) was 103% and the activity at 10 µM (HCT-116) was 95.6%. The activity at 10 µM (UACC-257) was 95.3%, the activity at 10 µM (MDA-MB 231/ATCC) was 121% and the activity at 10 µM (HL-60(TB)) was 110%. The activity at 10 µM (UACC-62) was 99.2%, the activity at 10 µM (NCI-H460) was 101% and the activity at 10 µM (IGROV1) was 109%. For the same compound, the activity at 10 µM (U251) was 96.2%, the activity at 10 µM (HOP-62) was 100% and the activity at 10 µM (HS 578T) was 110%. For the same compound, the activity at 10 µM (KM12) was 113%, the activity at 10 µM (PC-3) was 99% and the activity at 10 µM (786-0) was 90.2%. The activity at 10 µM (SR) was 95.1%, the activity at 10 µM (SK-OV-3) was 105% and the activity at 10 µM (SK-MEL-5) was 92.9%.
For Cc1nnc(N2CCN(c3ccccn3)CC2)c2ccccc12 [Compound 8i, 1-Methyl-4–(4-(pyridin-2-yl)piperazin-1-yl)phthalazine], the activity at 10 µM (SW-620) was 113%, the activity at 10 µM (NCI-H23) was 106% and the activity at 10 µM (SK-MEL-28) was 101%. It also gave an activity at 10 µM (RPMI-8226) of 104%, an activity at 10 µM (SN12C) of 104% and an activity at 10 µM (ACHN) of 99.6%. It also gave an activity at 10 µM (CCRF-CEM) of 102%, an activity at 10 µM (MALME-3M) of 107% and an activity at 10 µM (HCT-116) of 98.1%. For the same compound, the activity at 10 µM (UACC-257) was 98.5%, the activity at 10 µM (MDA-MB 231/ATCC) was 117% and the activity at 10 µM (HL-60(TB)) was 108%. For the same compound, the activity at 10 µM (UACC-62) was 101%, the activity at 10 µM (NCI-H460) was 103% and the activity at 10 µM (IGROV1) was 112%. For the same compound, the activity at 10 µM (U251) was 98.6%, the activity at 10 µM (HOP-62) was 99.8% and the activity at 10 µM (HS 578T) was 109%. It also gave an activity at 10 µM (KM12) of 110%, an activity at 10 µM (PC-3) of 100% and an activity at 10 µM (786-0) of 92.4%. For the same compound, the activity at 10 µM (SR) was 92.1%, the activity at 10 µM (SK-OV-3) was 108% and the activity at 10 µM (SK-MEL-5) was 97%.
